# Results published in ChEMBL document CHEMBL1201862, “PubChem BioAssay data set” (2004).
#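 Method: 48-hour compound exposure of cells in 96-well plates, five concentrations, linear interpolation of endpoints. At the GI50, growth is halved.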 The source made the active and inactive calls. Cut-off read from the data, not from the text of the source: active = GI50 up to about 1.1 µM and inactive = higher.
# Experiments:
# Test in all cases: inhibition of tumour cell growth, NCI panel, 48 h
# LOX IMVI = tested on: LOX IMVI
# K562 = tested on: K562
# RPMI-8226 = tested on: RPMI-8226
# U-251 = tested on: U-251
# KM12 = tested on: KM12
# HCT-116 = tested on: HCT-116
# SF-295 = tested on: SF-295
# ACHN = tested on: ACHN
# SF-268 = tested on: SF-268
# UACC-257 = tested on: UACC-257
# DU-145 = tested on: DU-145
# HCT-15 = tested on: HCT-15
# A549 = tested on: A549
# OVCAR-4 = tested on: OVCAR-4
# SK-MEL-5 = tested on: SK-MEL-5
# SW-620 = tested on: SW-620
# CCRF-CEM = tested on: CCRF-CEM
# A498 = tested on: A498
# Malme-3M = tested on: Malme-3M
# NCI-H522 = tested on: NCI-H522
SMILES,GI50 (LOX IMVI),GI50 (K562),GI50 (RPMI-8226),GI50 (U-251),GI50 (KM12),GI50 (HCT-116),GI50 (SF-295),GI50 (ACHN),GI50 (SF-268),GI50 (UACC-257),GI50 (DU-145),GI50 (HCT-15),GI50 (A549),GI50 (OVCAR-4),GI50 (SK-MEL-5),GI50 (SW-620),GI50 (CCRF-CEM),GI50 (A498),GI50 (Malme-3M),GI50 (NCI-H522)
COc1ccc2oc(=O)c(-c3csc(C)n3)cc2c1,> 100 µM (inactive),> 100 µM (inactive),> 100 µM (inactive),23 µM (inactive),> 100 µM (inactive),58.3 µM (inactive),18.6 µM (inactive),44.4 µM (inactive),21.6 µM (inactive),> 100 µM (inactive),> 100 µM (inactive),> 100 µM,> 100 µM (inactive),85.3 µM (inactive),> 100 µM (inactive),> 100 µM (inactive),> 100 µM (inactive),,,
COc1ccc(/C=C2/CCS(=O)(=O)c3ccc(C)cc3C2=O)cc1OC,8.11 µM (inactive),24.8 µM (inactive),11.7 µM (inactive),12.8 µM (inactive),11 µM (inactive),10.2 µM (inactive),14.7 µM (inactive),12.9 µM (inactive),20.5 µM (inactive),11.9 µM (inactive),3.73 µM (inactive),7.18 µM,25.9 µM (inactive),11.3 µM (inactive),,22.8 µM (inactive),8.75 µM (inactive),,,
CC(=O)OCCOCNC(=S)N/N=C/c1ccc(Br)s1,77.1 µM (inactive),> 20.8 µM (inactive),5.08 µM (inactive),> 95.3 µM (inactive),> 100 µM (inactive),55 µM (inactive),> 76 µM (inactive),> 100 µM (inactive),> 100 µM (inactive),> 100 µM (inactive),,> 100 µM,> 88.7 µM (inactive),> 93.3 µM (inactive),> 100 µM (inactive),> 100 µM (inactive),3.74 µM (inactive),> 100 µM (inactive),> 100 µM (inactive),8.17 µM (inactive)
CS(=O)(=O)N(CCC#N)c1ccc(/C=N/NC(=O)CC(=O)Nc2cccc(Cl)c2)cc1,> 100 µM (inactive),> 100 µM (inactive),> 100 µM (inactive),> 100 µM (inactive),> 100 µM (inactive),> 100 µM (inactive),> 100 µM (inactive),> 100 µM (inactive),> 100 µM (inactive),> 100 µM (inactive),,> 100 µM,> 100 µM (inactive),> 100 µM (inactive),> 100 µM (inactive),> 100 µM (inactive),> 100 µM (inactive),> 100 µM (inactive),> 100 µM (inactive),> 100 µM (inactive)
Cc1cc(-c2ccccc2)nc(Nc2nc3ccccc3o2)n1,> 100 µM (inactive),> 100 µM (inactive),> 100 µM (inactive),> 100 µM (inactive),> 100 µM (inactive),> 100 µM (inactive),> 100 µM (inactive),> 100 µM (inactive),> 100 µM (inactive),> 100 µM (inactive),,> 100 µM,> 100 µM (inactive),> 100 µM (inactive),> 100 µM (inactive),> 100 µM (inactive),74 µM (inactive),> 100 µM (inactive),> 100 µM (inactive),> 100 µM (inactive)
COc1cc([C@@H]2c3cc4c(cc3[C@@H](NCc3ccccc3F)C3COC(=O)[C@@H]32)OCO4)cc(OC)c1O (some centres undefined),3.07 µM (inactive),1.47 µM (inactive),1.93 µM (inactive),1.89 µM (inactive),3.99 µM (inactive),5.27 µM (inactive),1.43 µM (inactive),1.11 µM (active),4.69 µM (inactive),3.1 µM (inactive),,1.63 µM,0.933 µM (active),16.6 µM (inactive),0.828 µM (active),0.851 µM (active),1.49 µM (inactive),5 µM (inactive),5.94 µM (inactive),0.361 µM (active)
